Data reported in patent US9435807B2, “Use of leucyl tRNA synthetase” (Medicinal Bioconvergence Research Center, priority 2011, dated 2016).
pEC50: −log10 of the molar value.

What was measured:
LRS / RagD binding = target: T1, LRS / RagD binding (Homo sapiens, UniProt Q9NQL2+Q9P2J5); assay: In vitro pull-down of RagD with GST-LRS
T1 construct: made in house; RagD: 293T cell lysate
Procedure: In FIG. 6c, purified GST or GST-LRS protein was incubated with HA-RagD transfected cell lysates in the presence of GDPβS or GTPγS. The co-precipitated RagD was determined by immunoblotting with anti-HA antibody.
In FIG. 10a, the effect of tRNA on in vitro LRS-RagD binding. 293T cell lysates were incubated with purified GST or GST-fused LRS in the presence of the combinations of leucine (0.1 mM), ATP (0.1 mM), and tRNA^Leu (25 μg). The precipitated RagD was determined by immunoblotting with anti-RagD antibody.
Recombinant LRS or RagD fragment proteins were expressed as GST fusion proteins and purified by glutathione sepharose. The interactions between RagD fragments and myc-LRS overexpressed cell lysates or between LRS fragments and HA-RagD overexpressed cell lysates were tested using in vitro binding assays. Binding assay was conducted in 25 mM Tris-HCl buffer (pH7.4) containing 10 mM NaCl, 1 mM MgCl2, 1 mM EDTA, 0.5 mM EGTA, and 0.5% Triton X-100.

mTORC1 [1] = assay: S6K phosphorylation (mTORC1 activation) by immunoblotting in 293T cells; format: cell-based; details: for pEC50: Homo sapiens, HEK-293T; for pEC50 / leucine-induced S6K phosphorylation / amino acid-induced S6K phosphorylation: 293T cells; for S6K phosphorylation by the leucine analogue itself: 293T cells starved 1 hour of leucine, 0.8 or 8 mM analogue; for leucine-induced S6K phosphorylation: preincubated with 0.8 or 8 mM analogue, then 0.8 mM leucine 5 min; for amino acid-induced S6K phosphorylation: siRNA 48 hours
Procedure: FIGS. 9a-9d show the effect of LRS knockdown on leucine- or leucine analogues-stimulated S6K phosphorylation. In FIG. 9a, the effect of leucine analogues on leucine-stimulated S6K phosphorylation is shown. 293T cells were starved for 1 hour of leucine and preincubated with either 0.8 or 8 mM leucinol or leucine amide. After 5 min, 0.8 mM leucine was added. After 5 min incubation, cells were harvested and S6K phosphorylation was determined by immunoblotting.
In FIG. 11a, 293T cells were treated with leucine at the indicated concentration for 5 min. Leucine-dependent S6K phosphorylation was determined by immunoblotting. In FIG. 11b, quantitation of p-S6K band in FIG. 11a is shown. EC50 of leucine stimulation of mTORC1 was about […]. In FIG. 11c, kinetic parameters for leucylation and ATP-PPi exchange activity of WT LRS is shown.
(§1) For leucine depletion, cells were rinsed with leucine-free DMEM twice, incubated in leucine-free DMEM for 60 minutes, and stimulated with […] leucine for 5-60 minutes. For amino acid starvation, cells were rinsed with and incubated in DPBS containing 25 mM glucose, 1 mM sodium pyruvate, lx MEM vitamins for 60 minutes, and replaced with and incubated in DMEM for 5-60 minutes.
(§2) Cells were dissolved in the lysis buffer containing 1% Triton X-100, 40 mM HEPES (pH7.4), 2 mM EDTA, 10 mM pyrophosphate, 10 mM glycerophosphate, and protease inhibitor cocktail. The lysates were centrifuged at 13,000 rpm for 30 minutes. We then fractionated 20 μg of the extracted proteins by SDS-PAGE. For immunoprecipitations, the cells were lysed (50 mM Tris-HCL (pH 7.4), 10 mM NaCl, 1 mM EDTA, 0.5 mM EGTA, 1 mM MgCl2, 0.1% CHAPS, and 0.5% Triton X-100, 1 mM phenylmethylsulfonyl fluoride) and the primary antibodies were added to the lysates and incubated with rotation for 2 hr at 4° C. A 50% slurry of protein agarose G-sepharose was then added and the incubation continued for an additional 4 hr. After washing three times with the ice-cold lysis buffer, the precipitates were dissolved in the SDS sample buffer and separated by SDS-PAGE.

mTORC1 [2] = assay: S6K phosphorylation (mTORC1 activation) by immunoblotting in HeLa cells; format: cell-based; details: for S6K phosphorylation by the leucine analogue itself: HeLa cells starved 1 hour of leucine, 0.8 or 8 mM analogue; for leucine-induced S6K phosphorylation: HeLa cells, preincubated with 0.8 or 8 mM analogue, then 0.8 mM leucine 5 min
Procedure: In FIG. 9b, HeLa cells were starved for 1 hour of leucine and preincubated with either 0.8 or 8 mM leucinol or leucine amide. After 5 min, 0.8 mM leucine was added. After 5 min incubation, cells were harvested and S6K phosphorylation was determined by immunoblotting.
as §1, §2

293T cells = assay: Cell size determination (FSC of G1 cells, FACS); format: cell-based
Procedure: For measurement of cell size using forward scatter units (FSC) with unfixed cells. 293T cells were plated, washed once with PBS, and resuspended in PBS containing 0.1% serum, 5 mM EDTA, 5 ng/ml propidium iodide (PI; Sigma). Samples were analyzed by FACS analysis (FACS caliber; Becton Dickinson) for cell size (FSC). The mean of FSC of G1 phase cells was determined.

EGFP-LC3 puncta = assay: Autophagy: EGFP-LC3 puncta in siRNA-transfected cells; format: cell-based; details: starved for leucine and serum for 2 hours
Procedure: The cells were starved for leucine and serum for 2 hours. Accumulation of EGFP-LC3 in puncta, was monitored.

T1 sequence (Q9P2J5 whole entry): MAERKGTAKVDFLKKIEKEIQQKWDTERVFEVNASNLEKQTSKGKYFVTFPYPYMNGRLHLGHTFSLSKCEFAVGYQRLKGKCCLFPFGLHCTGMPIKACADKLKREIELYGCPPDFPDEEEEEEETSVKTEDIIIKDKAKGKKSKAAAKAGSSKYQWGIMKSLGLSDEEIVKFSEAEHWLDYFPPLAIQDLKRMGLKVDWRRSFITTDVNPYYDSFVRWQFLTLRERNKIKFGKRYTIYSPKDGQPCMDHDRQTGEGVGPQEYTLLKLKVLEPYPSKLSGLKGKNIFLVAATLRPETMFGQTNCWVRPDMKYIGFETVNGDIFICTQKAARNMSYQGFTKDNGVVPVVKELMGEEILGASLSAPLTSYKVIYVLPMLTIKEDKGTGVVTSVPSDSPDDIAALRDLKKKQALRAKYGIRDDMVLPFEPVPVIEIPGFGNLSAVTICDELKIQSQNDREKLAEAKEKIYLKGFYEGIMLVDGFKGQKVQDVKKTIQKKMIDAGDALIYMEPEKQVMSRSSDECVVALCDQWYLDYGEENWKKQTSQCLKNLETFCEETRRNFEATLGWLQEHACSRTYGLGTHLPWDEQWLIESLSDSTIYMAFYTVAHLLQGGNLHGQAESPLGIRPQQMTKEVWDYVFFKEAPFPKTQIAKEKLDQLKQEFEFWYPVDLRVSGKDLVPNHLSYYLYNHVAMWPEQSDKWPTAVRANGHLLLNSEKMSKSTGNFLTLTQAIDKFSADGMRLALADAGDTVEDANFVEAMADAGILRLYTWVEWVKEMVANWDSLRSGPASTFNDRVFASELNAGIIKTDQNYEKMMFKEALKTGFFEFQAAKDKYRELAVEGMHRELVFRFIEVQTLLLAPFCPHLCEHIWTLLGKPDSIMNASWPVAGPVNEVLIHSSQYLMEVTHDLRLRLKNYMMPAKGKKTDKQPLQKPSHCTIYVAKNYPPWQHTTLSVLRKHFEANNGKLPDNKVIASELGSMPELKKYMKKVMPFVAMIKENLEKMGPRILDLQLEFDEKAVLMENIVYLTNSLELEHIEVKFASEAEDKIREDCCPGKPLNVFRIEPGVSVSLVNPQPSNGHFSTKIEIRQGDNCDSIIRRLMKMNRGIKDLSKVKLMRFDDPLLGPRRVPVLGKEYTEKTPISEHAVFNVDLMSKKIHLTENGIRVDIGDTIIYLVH
T1 sequence (Q9NQL2 whole entry): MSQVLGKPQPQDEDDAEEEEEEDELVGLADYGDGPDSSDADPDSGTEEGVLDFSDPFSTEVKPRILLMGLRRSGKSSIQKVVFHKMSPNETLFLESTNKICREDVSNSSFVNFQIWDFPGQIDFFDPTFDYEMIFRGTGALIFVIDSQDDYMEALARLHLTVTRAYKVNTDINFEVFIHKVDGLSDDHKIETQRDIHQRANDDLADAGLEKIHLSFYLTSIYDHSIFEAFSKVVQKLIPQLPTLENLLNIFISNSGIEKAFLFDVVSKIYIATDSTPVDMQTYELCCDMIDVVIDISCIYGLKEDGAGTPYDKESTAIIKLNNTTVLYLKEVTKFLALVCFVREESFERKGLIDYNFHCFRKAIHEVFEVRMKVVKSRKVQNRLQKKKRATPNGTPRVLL

## Nc1ncnc2c1ncn2[C@@H]1O[C@H](COP(=O)(O)OP(=O)(O)OP(=O)(O)O)[C@@H](O)[C@H]1O [ATP]
LRS / RagD binding; GST-LRS with 293T cell lysates, ATP 0.1 mM, tRNA^Leu 25 μg
  competition with RagD for LRS binding: not

## Nc1nc2c(ncn2[C@@H]2O[C@H](COP(=O)(O)OP(O)(O)=S)[C@@H](O)[C@H]2O)c(=O)[nH]1 [GDPβS]
LRS / RagD binding; GST-LRS with HA-RagD transfected 293T cell lysates, presence of nucleotide analogue
  binding affinity of LRS to RagD: significantly reduced

## CC(C)C[C@H](N)C(=O)O [Leucine, L-Leucine]
mTORC1 [1]; 5 min, leucine 5 min, quantitation of p-S6K band (FIG. 11b legend), read-out: EC50 of leucine stimulation of mTORC1
  pEC50: ~4.10
mTORC1 [1]; read-out: EC50 for leucine stimulation of mTORC1
  pEC50: ~4.10
mTORC1 [2]; Homo sapiens, HeLa cells (data not shown), read-out: EC50 for leucine stimulation of mTORC1
  pEC50: ~4.10

## CC(C)C[C@H](N)C(N)=O [leucinamide, L-Leucinamide]
mTORC1 [1]
  S6K phosphorylation by the leucine analogue itself: significantly induced
  leucine-induced S6K phosphorylation: further increased
mTORC1 [2]
  S6K phosphorylation by the leucine analogue itself: significantly induced
  leucine-induced S6K phosphorylation: further increased

## CC(C)C[C@H](N)CO [leucinol, Leucinol]
mTORC1 [1]
  S6K phosphorylation by the leucine analogue itself: no effect
  leucine-induced S6K phosphorylation: inhibited leucine-induced S6K phosphorylation in dose-dependent manner
mTORC1 [2]
  S6K phosphorylation by the leucine analogue itself: no effect
  leucine-induced S6K phosphorylation: inhibited leucine-induced S6K phosphorylation in dose-dependent manner

## MRS siRNA: siRNA CUACCGCUGGUUUAACAUUUCGUUU, SEQ ID NO 18 (chemistry not given here)
293T cells
  cell size: no effect
mTORC1 [1]
  amino acid-induced S6K phosphorylation: not

## VRS siRNA: siRNA AGAAGAGGAUGUCAUGACCGGUCUC, SEQ ID NO 17 (chemistry not given here)
293T cells
  cell size: no effect
mTORC1 [1]
  amino acid-induced S6K phosphorylation: not

## mTOR siRNA: siRNA GGAAGUACCCUACUUUGCUUGAGGU, SEQ ID NO 15 (chemistry not given here)
EGFP-LC3 puncta
  LC3 puncta per cell compared to control siRNA: statistically significant increase
mTORC1 [1]
  amino acid-induced S6K phosphorylation: significantly inhibited
